Literature values, collected in paper doi:10.1101/2023.11.06.565863v1 (bioRxiv, 2023).

How the values were obtained:
R1441C-LRRK2 MEFs [1] = tested on: R1441C-LRRK2 MEFs
R1441C-LRRK2 MEFs [2] = tested on: R1441C-LRRK2 MEFs; remark: listed apart in the source

## C[C@@H]1CN(c2cc(-c3n[nH]c4ccc(OC5(C)CC5)cc34)ncn2)C[C@H](C)O1 [MLi2]
R1441C-LRRK2 MEFs [1]
  Ciliogenesis defects of R1441C-LRRK2 MEFs vs littermate wildtype MEFs: reverted
R1441C-LRRK2 MEFs [2]
  Centrosome cohesion defects of R1441C-LRRK2 MEFs vs littermate wildtype MEFs: reverted
